In US20220040255A1, “CHEMOTHERAPEUTIC REMODELING OF THE GUT MICROBIOME” (THE SCRIPPS RESEARCH INSTITUTE, priority 2018, published 2022):
Where a SMILES comes first, the peptide text is derived from it. [ ]: non-standard residue; d: D form.

Experiments:
[1] = system: cytokines/chemokines in liver tissue; experiment: cytokines/chemokines in liver tissue by Luminex assay; format: in vivo, LDLr−/− mice
From the text: Interleukin-1β (IL-1β) is a proinflammatory cytokine central to the inflammatory response […] the interlukin-6 (IL-6) signaling pathway. […] In addition to IL-1β, a pathogenic role of IL-la in vascular inflammation and atherosclerosis has been described.

[2] = system: total bile acid; experiment: bulk (total) bile acid quantification; format: in vivo, LDLr−/− mice; details: 2-wk treatment
Method: Bulk bile acid quantification. Total bile acids were measured enzymatically using a total bile acid assay kit (Cell Biolabs) following manufacturer's instruction. Feces were obtained between 0900-1100 am from non-fasted animals after a 2-wk treatment period. The extraction of bile acid from feces was performed as described in Yu et al., J. Biol. Chem. 275, 15482-15489, 2000. In brief, the feces from individual mice were collected, weighed, and agitated in 75% ethanol in an ultrasonic bath at 50° C. for 2 h. After centrifugation at 3,500 g for 10 min, the supernatant was transferred to a new tube and diluted with 25% PBS. The total bile acid level was then determined enzymatically using the kit. For plasma samples, the plasma was diluted 1:10 with 25% PBS prior to enzymatic bile acid measurement using the kit.

[3] = system: mouse liver and ileum gene expression; experiment: host gene expression (mouse RNA-seq, qPCR); format: in vivo, mice; details: peptide-treated WD animals
Method: Mouse RNA-seq sample preparation and sequencing. Mouse tissues were harvested after 2 weeks of treatment, stored in RNAlater, and snap-frozen. 20-30 mg of mouse tissue was used for RNA extraction with RNeasy Mini Kit (Qiagen) following the manufacturer's instructions. Ribosomal RNA was removed from total RNA with Ribo-Zero Gold rRNA removal kit (Illumina). Strand-specific RNA-seq libraries were constructed as described previously (Hainer et al., Genes Dev. 29, 362-378, 2015). Libraries with different barcodes were pooled and single-end sequencing (75 bp) was performed on an Illumina NextSeq at the Scripps Research Institute next generation sequencing core.
Mouse RNA sequencing data analysis. After ribosomal RNA sequences were removed, the RNA transcripts were quantified using RSEM. […] Enrichment of Gene Ontology terms and categories was performed with DAVID 6.8.
Quantitative real-time PCR. To validate selected gene expression results, qPCR reactions were carried out. Mouse livers were harvested two weeks after peptide treatment and total RNA was extracted using RNeasy Mini (Qiagen) following manufacturer's instructions. […]

[4] = system: gut microbiota metabolites; experiment: fecal SCFA and amino acid measurements (LC-MS); format: in vivo, LDLr−/− mice
Method: SCFA and amino acid measurements. Fecal SCFA and amino acid content was measured by liquid chromatography-mass spectrometry (LC-MS). The fecal samples were weighed and placed into 2 ml Omni tubes. Ethanol was added to bring the volume to 350 μl. Next, 4 μl of 500 μM d-FA-mix and 20 μl of 1 mM 3CHPA were added to each sample as internal standard. The samples were homogenized using an Omni bead beater at the speed of 4.5 m/s for 30 sec, and then centrifuged at 13,000 rpm for 15 min. 90 μl of the supernatants was transferred into glass HPLC vials. 30 μl of freshly prepared 4×3NPH solution (160 mM 3-nitrophenylhydrazine, 150 mM EDC, pyridine 12% vol, 50% acetonitrile) was added to each sample and the reactions were held at room temperature for 30 min. 2 μl of the sample was injected into the LC-MS (Agilent 1290 HPLC, 6550 qTOF). The concentration of each SCFA and amino acid was calculated based on a standard curve and normalized by the internal control and the feces weight.

[5] = system: Foxp3+ regulatory T cell (Treg) population; experiment: quantification of regulatory T cells in lamina propria; format: in vivo, mice
From the text: Quantification of regulatory T cells. Lamina propria (LP) immune cells from the small intestine were isolated using lamina propria dissociation kit (Miltenyi Biotec) following the manufacturer's instruction. All antibodies and flow cytometry reagents were obtained from Thermo Fisher. We used FITC anti-CD4 (RM4-5), PE anti-Foxp3 (FJK-16s), PE-Cyanine 7 anti-GATA3 (TWAJ), APC anti ROR gamma t (AFKJS-9), APC-efluor780 anti-Helios (22F6) and e-fluor 450 anti-CD3 (17A2) antibodies. To block non-antigen specific binding of immunoglobulins and discriminate live from dead cells, LP cell suspensions were incubated with mouse BD Fc block (BD Biosciences) and e-fluor 506 fixable viability dye (Thermo Fisher) for 30 minutes on ice. For surface staining, the cells were incubated with antibodies for 25 min, washed and fixed in fixation/permeabilization solution (Thermo Fisher). After being washed with transcription factor wash buffer (Thermo Fisher), cells were stained intracellularly for 45 min at room temperature, washed, and resuspended in PBS. Samples were read in a FACs canto analyzer (BD Biosciences) and analyzed with FACs Diva software v 8.0 (BD Biosciences). Total LP cell numbers were quantified to calculate regulatory T cell ratios. Flow Jo v10 software was used for dot plots generation and final analysis.

[6] = liver tissue, WD-fed LDLr−/− mice, 4 weeks of treatment
[7] = wild-type and LDLr−/− mice fed a WD

SMILES: CC(C)C[C@@H]1NC(=O)[C@@H](Cc2c[nH]c3ccccc23)NC(=O)[C@H](CCCNC(=N)N)NC(=O)[C@@H](CCC(=O)O)NC(=O)[C@H](CCC(N)=O)NC(=O)[C@@H](CCC(=O)O)NC(=O)[C@H](CCCNC(=N)N)NC(=O)[C@@H](Cc2c[nH]c3ccccc23)NC1=O [c[wLwReQeR]] (cyclo([dW]L[dW]R[dE]Q[dE]R))
- several cytokine and chemokine levels, including IL-1β, IL-1α, IL-6, and TNF-α ([1]; liver tissue from WD animals, treated vs vehicle): significant reductions
- CCL2 (MCP-1) level [1, 6]: 470 ± 150 pg/g tissue
- CCL3 (MIP-1a) level [1, 6]: 200 ± 130 pg/g tissue
- CCL4 (MIP-1b) level [1, 6]: 3000 ± 1800 pg/g tissue
- CXCL10 (IP-10) level [1, 6]: 1200 ± 380 pg/g tissue
- Eotaxin level [1, 6]: 1200 ± 390 pg/g tissue
- G-CSF level [1, 6]: 380 ± 150 pg/g tissue
- GM-CSF level [1, 6]: 86 ± 37 pg/g tissue
- IFNg level [1, 6]: 37 ± 16 pg/g tissue
- IL1a level [1, 6]: 1100 ± 190 pg/g tissue
- IL1b level [1, 6]: 430 ± 100 pg/g tissue
- IL2 level [1, 6]: 80 ± 24 pg/g tissue
- IL3 level [1, 6]: 31 ± 15 pg/g tissue
- IL4 level [1, 6]: 13 ± 8.4 pg/g tissue
- IL6 level [1, 6]: 260 ± 55 pg/g tissue
- IL7 level [1, 6]: 230 ± 110 pg/g tissue
- IL9 level [1, 6]: 670 ± 160 pg/g tissue
- IL10 level [1, 6]: 160 ± 58 pg/g tissue
- IL13 level [1, 6]: 7.3 ± 5.9 pg/g tissue
- IL-12p40 level [1, 6]: 200 ± 78 pg/g tissue
- IL-12p70 level [1, 6]: 270 ± 140 pg/g tissue
- IL-15 level [1, 6]: 960 ± 370 pg/g tissue
- IL-17 level [1, 6]: 55 ± 16 pg/g tissue
- KC level [1, 6]: 190 ± 20 pg/g tissue
- LIF level [1, 6]: 7.1 ± 4 pg/g tissue
- LIX level [1, 6]: 290 ± 240 pg/g tissue
- M-CSF level [1, 6]: 200 ± 70 pg/g tissue
- MIG level [1, 6]: 1200 ± 650 pg/g tissue
- RANTES level [1, 6]: 71 ± 61 pg/g tissue
- TNFa level [1, 6]: 77 ± 21 pg/g tissue
- VEGF level [1, 6]: 8.2 ± 3.4 pg/g tissue
- total bile acid in the feces, peptide-treated vs. control WD-fed mice ([2]; feces): two-fold higher
- total bile acid in the plasma, peptide-treated vs. control WD-fed mice ([2]; plasma): three-fold lower
- expression of cholesterol 7 alpha-hydroxylase (Cyp7a1) [3]: significantly increased
- levels of fatty acids containing 4-6 carbons, including butyrate ([4]; fecal samples, two-week treatment): increased levels
- levels of tryptophan and phenylalanine in the feces ([4]; feces, two-week course): higher levels
- composition of Foxp3+ regulatory T cell (Treg) population [5]: significantly altered
- Helios+/RORγt+ Treg ratio [5, 7]: increased
- Helios+/Th17 ratio [5, 7]: increased
